Test results from ChEMBL document CHEMBL4229544, “Design, synthesis and antibacterial properties of pyrimido[4,5-b]indol-8-amine inhibitors of DNA gyrase” (Bioorg Med Chem Lett, 2018).
In brackets after ≈: the same amount, converted by molar mass.

Legend:
[1] = test system: Mycobacterium tuberculosis; test: Antibacterial activity against Mycobacterium tuberculosis H37Rv; type: functional
[2] = test system: Mycolicibacterium smegmatis; test: Antibacterial activity against Mycobacterium smegmatis ATCC 19420; type: functional
Enterococcus faecalis [3] = test: Antibacterial activity against Enterococcus faecalis ATCC 29212; type: functional
Staphylococcus aureus = test: Antibacterial activity against Staphylococcus aureus ATCC 29213; type: functional
Escherichia coli = test: Antibacterial activity against Escherichia coli ATCC 25922; type: functional
[4] = test system: Staphylococcus epidermidis; test: Antibacterial activity against Staphylococcus epidermidis ATCC 12228; type: functional
[5] = biological target: T1, DNA gyrase subunit A/DNA gyrase subunit B (Mycobacterium tuberculosis (strain ATCC 25618 / H37Rv), UniProt P9WG45+P9WG47); test: Inhibition of Mycobacterium tuberculosis DNA gyrase activity; type: protein-complex assay
T1 sequence (P9WG45 whole entry): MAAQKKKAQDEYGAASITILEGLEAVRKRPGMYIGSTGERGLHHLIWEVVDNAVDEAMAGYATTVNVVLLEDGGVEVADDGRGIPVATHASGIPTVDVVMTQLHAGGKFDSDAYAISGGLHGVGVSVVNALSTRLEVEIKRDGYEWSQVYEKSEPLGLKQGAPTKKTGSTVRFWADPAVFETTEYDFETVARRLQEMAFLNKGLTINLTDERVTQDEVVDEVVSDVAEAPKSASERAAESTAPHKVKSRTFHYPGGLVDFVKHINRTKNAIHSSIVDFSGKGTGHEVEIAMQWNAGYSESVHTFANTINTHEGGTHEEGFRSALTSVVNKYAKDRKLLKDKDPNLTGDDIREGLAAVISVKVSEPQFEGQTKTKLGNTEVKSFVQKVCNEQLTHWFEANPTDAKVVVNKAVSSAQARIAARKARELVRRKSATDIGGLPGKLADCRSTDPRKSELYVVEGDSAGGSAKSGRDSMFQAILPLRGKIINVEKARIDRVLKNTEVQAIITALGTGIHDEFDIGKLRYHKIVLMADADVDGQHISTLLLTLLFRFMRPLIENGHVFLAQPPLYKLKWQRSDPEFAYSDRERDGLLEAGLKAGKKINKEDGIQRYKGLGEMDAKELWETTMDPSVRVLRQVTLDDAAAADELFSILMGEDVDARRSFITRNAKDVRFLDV
T1 sequence (P9WG47 whole entry): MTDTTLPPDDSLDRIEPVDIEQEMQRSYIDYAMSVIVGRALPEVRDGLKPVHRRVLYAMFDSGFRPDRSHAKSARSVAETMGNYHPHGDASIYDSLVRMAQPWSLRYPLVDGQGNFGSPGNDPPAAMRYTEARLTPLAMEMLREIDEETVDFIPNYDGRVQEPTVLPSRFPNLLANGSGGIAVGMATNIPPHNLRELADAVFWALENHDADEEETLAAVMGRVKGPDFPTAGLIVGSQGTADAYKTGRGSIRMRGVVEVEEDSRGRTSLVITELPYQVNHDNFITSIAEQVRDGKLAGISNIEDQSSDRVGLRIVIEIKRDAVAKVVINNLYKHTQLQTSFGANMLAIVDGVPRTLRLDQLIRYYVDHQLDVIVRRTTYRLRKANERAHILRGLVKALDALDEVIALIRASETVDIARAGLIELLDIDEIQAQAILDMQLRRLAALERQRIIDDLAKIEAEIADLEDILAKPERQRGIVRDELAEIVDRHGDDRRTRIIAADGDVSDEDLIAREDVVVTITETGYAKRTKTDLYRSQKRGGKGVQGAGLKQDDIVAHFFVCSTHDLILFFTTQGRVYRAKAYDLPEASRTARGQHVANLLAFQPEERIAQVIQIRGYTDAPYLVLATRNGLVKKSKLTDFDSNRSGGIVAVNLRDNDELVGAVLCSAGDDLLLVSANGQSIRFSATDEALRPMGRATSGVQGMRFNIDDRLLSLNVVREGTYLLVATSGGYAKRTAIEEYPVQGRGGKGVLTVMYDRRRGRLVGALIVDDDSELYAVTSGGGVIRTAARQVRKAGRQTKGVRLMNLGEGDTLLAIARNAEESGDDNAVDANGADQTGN

Haemophilus influenzae [6] = test: Antibacterial activity against Haemophilus influenzae ATCC 49247; type: functional
Acinetobacter baumannii = test: Antibacterial activity against Acinetobacter baumannii NCTC 13420; type: functional
[7] = biological target: T1, DNA gyrase subunit A/DNA gyrase subunit B; test: Inhibition of Mycobacterium tuberculosis DNA gyrase ATPase activity; type: protein-complex assay
Streptococcus pneumoniae [8] = test: Antibacterial activity against Streptococcus pneumoniae ATCC 49619; type: functional
HepG2 = test: Cytotoxicity against human HepG2 cells after 24 hrs by CellTiter-Glo assay; type: cell-based; details: HepG2, 24 h
Pseudomonas aeruginosa [9] = test: Antibacterial activity against Pseudomonas aeruginosa ATCC 27853; type: functional
Homo sapiens = organism: Homo sapiens; test: Inhibition of human topoisomerase-2-mediated decatenation at 100 uM relative to control
[10] = test system: Mycobacterium tuberculosis; test: Antibacterial activity against Mycobacterium tuberculosis H37Rv measured after 5 days by resazurin-dye based microplate assay; type: functional; details: 120 h
[11] = test system: Staphylococcus epidermidis; test: Antibacterial activity against Staphylococcus epidermidis ATCC 12228 by agar dilution method; type: functional
Pseudomonas aeruginosa [12] = test: Antibacterial activity against Pseudomonas aeruginosa ATCC 27853 by agar dilution method; type: functional
Streptococcus pneumoniae [13] = test: Antibacterial activity against Streptococcus pneumoniae ATCC 49619 by agar dilution method; type: functional
Haemophilus influenzae [14] = test: Antibacterial activity against Haemophilus influenzae ATCC 49247 by agar dilution method; type: functional
Enterococcus faecalis [15] = test: Antibacterial activity against Enterococcus faecalis ATCC 29212 by agar dilution method; type: functional

CNc1cc(F)cc2c1[nH]c1nc(CNC(=O)c3cocn3)nc(N3CCC(NC)C3)c12 (centres undefined)
MIC [1]: 0.12 µg/mL (≈ 0.274 µM)
MIC [2]: 0.5 µg/mL (≈ 1.14 µM)
MIC (Enterococcus faecalis [3]): 0.25 µg/mL (≈ 0.57 µM)
MIC (Staphylococcus aureus): 16 µg/mL (≈ 36.5 µM)
MIC (Escherichia coli): 16 µg/mL (≈ 36.5 µM)

CNc1cc(F)cc2c1[nH]c1nc(CNC(=O)c3cnc(C)o3)nc(N3CCC(N(C)C)C3)c12 (centres undefined)
MIC [2]: 0.002 µg/mL (≈ 0.00429 µM)
MIC (Enterococcus faecalis [3]): 0.015 µg/mL (≈ 0.0322 µM)
MIC (Staphylococcus aureus): 1 µg/mL (≈ 2.14 µM)
MIC (Escherichia coli): 1 µg/mL (≈ 2.14 µM)

CNc1cc(F)cc2c1[nH]c1nc(CNC(=O)c3cocn3)nc(N3CCC(N)C3)c12 (centres undefined)
MIC [4]: 1 µg/mL (≈ 2.36 µM)
IC50 [5]: 5 nM
MIC (Haemophilus influenzae [6]): 1 µg/mL (≈ 2.36 µM)
MIC (Acinetobacter baumannii): 16 µg/mL (≈ 37.7 µM)
IC50 [7]: 25 nM
MIC (Streptococcus pneumoniae [8]): 0.12 µg/mL (≈ 0.283 µM)
MIC [2]: 0.12 µg/mL (≈ 0.283 µM)
IC50 (HepG2): 10.8 µg/mL (≈ 25.5 µM)
MIC (Enterococcus faecalis [3]): 0.06 µg/mL (≈ 0.141 µM)
MIC (Staphylococcus aureus): 8 µg/mL (≈ 18.8 µM)
MIC (Escherichia coli): 128 µg/mL (≈ 302 µM)
MIC (Pseudomonas aeruginosa [9]): 128 µg/mL (≈ 302 µM)
inhibition (Homo sapiens): 5.8%

CNc1cc(F)cc2c1[nH]c1nc(CNC(=O)c3cccnn3)nc(N3CCC(N)C3)c12 (centres undefined)
MIC (Enterococcus faecalis [3]): 0.12 µg/mL (≈ 0.276 µM)
MIC (Staphylococcus aureus): 8 µg/mL (≈ 18.4 µM)
MIC (Escherichia coli): 4 µg/mL (≈ 9.19 µM)

CNc1cc(F)cc2c1[nH]c1nc(CNC(=O)c3ocnc3C)nc(N3CCC(N(C)C)C3)c12 (centres undefined)
MIC [1]: 0.06 µg/mL (≈ 0.129 µM)
MIC [2]: 0.06 µg/mL (≈ 0.129 µM)
MIC (Enterococcus faecalis [3]): 0.03 µg/mL (≈ 0.0643 µM)
MIC (Staphylococcus aureus): 1 µg/mL (≈ 2.14 µM)
MIC (Escherichia coli): 2 µg/mL (≈ 4.29 µM)

CNc1cc(F)cc2c1[nH]c1nc(CNC(=O)c3cnco3)nc(N3CCC(CN)C3)c12 (centres undefined)
MIC [1]: 0.03 µg/mL (≈ 0.0684 µM)
MIC [2]: 0.06 µg/mL (≈ 0.137 µM)
MIC (Enterococcus faecalis [3]): 0.12 µg/mL (≈ 0.274 µM)
MIC (Staphylococcus aureus): 4 µg/mL (≈ 9.12 µM)
MIC (Escherichia coli): 4 µg/mL (≈ 9.12 µM)

CNc1cc(F)cc2c1[nH]c1nc(CNC(=O)c3cnco3)nc(N3CCC(NC)C3)c12 (centres undefined)
MIC [4]: 2 µg/mL (≈ 4.56 µM)
MIC (Haemophilus influenzae [6]): 4 µg/mL (≈ 9.12 µM)
MIC (Acinetobacter baumannii): > 64 µg/mL
MIC [1]: 0.03 µg/mL (≈ 0.0684 µM)
MIC (Streptococcus pneumoniae [8]): 2 µg/mL (≈ 4.56 µM)
MIC [2]: 0.5 µg/mL (≈ 1.14 µM)
IC50 (HepG2): > 32 µg/mL
MIC (Enterococcus faecalis [3]): 0.5 µg/mL (≈ 1.14 µM)
MIC (Staphylococcus aureus): 8 µg/mL (≈ 18.2 µM)
MIC (Escherichia coli): 4 µg/mL (≈ 9.12 µM)
MIC (Pseudomonas aeruginosa [9]): > 64 µg/mL

CNc1cc(F)cc2c1[nH]c1nc(CNC(=O)c3ccc4cc[nH]c4n3)nc(N3CCC(N(C)C)C3)c12 (centres undefined)
MIC [1]: 0.25 µg/mL (≈ 0.498 µM)
MIC [2]: 0.25 µg/mL (≈ 0.498 µM)
MIC (Enterococcus faecalis [3]): 0.5 µg/mL (≈ 0.997 µM)
MIC (Staphylococcus aureus): 1 µg/mL (≈ 1.99 µM)
MIC (Escherichia coli): 4 µg/mL (≈ 7.97 µM)

CO[C@@H]1[C@@H](OC(N)=O)[C@@H](O)[C@H](Oc2ccc3c(O)c(NC(=O)c4ccc(O)c(CC=C(C)C)c4)c(=O)oc3c2C)OC1(C)C [NOVOBIOCIN]
MIC [10]: 4 µg/mL (≈ 6.53 µM)
MIC [11]: 0.06 µg/mL (≈ 0.0979 µM)
MIC [2]: 1 µg/mL (≈ 1.63 µM)
IC50 (HepG2): > 32 µg/mL
MIC (Pseudomonas aeruginosa [12]): > 64 µg/mL
MIC (Staphylococcus aureus): 0.06 µg/mL (≈ 0.0979 µM)
MIC (Streptococcus pneumoniae [13]): 0.5 µg/mL (≈ 0.816 µM)
MIC (Haemophilus influenzae [14]): 0.5 µg/mL (≈ 0.816 µM)
MIC (Escherichia coli): > 64 µg/mL
MIC (Enterococcus faecalis [15]): 4 µg/mL (≈ 6.53 µM)

CNc1cc(F)cc2c1[nH]c1nc(CNC(=O)c3cnco3)nc(N3CCC(N(C)C)C3)c12 (centres undefined)
MIC [4]: 0.12 µg/mL (≈ 0.265 µM)
MIC (Haemophilus influenzae [6]): 4 µg/mL (≈ 8.84 µM)
MIC (Acinetobacter baumannii): 1 µg/mL (≈ 2.21 µM)
MIC [1]: 0.06 µg/mL (≈ 0.133 µM)
MIC (Streptococcus pneumoniae [8]): 0.12 µg/mL (≈ 0.265 µM)
MIC [2]: 0.06 µg/mL (≈ 0.133 µM)
IC50 (HepG2): > 16 µg/mL
MIC (Enterococcus faecalis [3]): 0.015 µg/mL (≈ 0.0331 µM)
MIC (Staphylococcus aureus): 0.5 µg/mL (≈ 1.1 µM)
MIC (Escherichia coli): 0.25 µg/mL (≈ 0.552 µM)
MIC (Pseudomonas aeruginosa [9]): > 64 µg/mL

CNc1cc(F)cc2c1[nH]c1nc(CNC(=O)c3ocnc3C)nc(N3CCC(NC)C3)c12 (centres undefined)
MIC [1]: 0.03 µg/mL (≈ 0.0663 µM)
MIC [2]: 0.06 µg/mL (≈ 0.133 µM)
MIC (Enterococcus faecalis [3]): 0.25 µg/mL (≈ 0.552 µM)
MIC (Staphylococcus aureus): 4 µg/mL (≈ 8.84 µM)
MIC (Escherichia coli): 4 µg/mL (≈ 8.84 µM)

CNc1cc(F)cc2c1[nH]c1nc(CNC(=O)c3cnc(C)o3)nc(N3CCC(CN)C3)c12 (centres undefined)
MIC [1]: 0.015 µg/mL (≈ 0.0331 µM)
MIC [2]: 0.12 µg/mL (≈ 0.265 µM)
MIC (Enterococcus faecalis [3]): 0.25 µg/mL (≈ 0.552 µM)
MIC (Staphylococcus aureus): 8 µg/mL (≈ 17.7 µM)
MIC (Escherichia coli): 4 µg/mL (≈ 8.84 µM)

CO[C@H]1/C=C/O[C@@]2(C)Oc3c(C)c(O)c4c(O)c(c(/C=N/N5CCN(C)CC5)c(O)c4c3C2=O)NC(=O)/C(C)=C\C=C\[C@H](C)[C@H](O)[C@@H](C)[C@@H](O)[C@@H](C)[C@H](OC(C)=O)[C@@H]1C [RIFAMPIN]
MIC [2]: 16 µg/mL (≈ 19.4 µM)

COc1c(N2C[C@@H]3CCCN[C@@H]3C2)c(F)cc2c(=O)c(C(=O)O)cn(C3CC3)c12 [MOXIFLOXACIN]
MIC [2]: 0.03 µg/mL (≈ 0.0747 µM)

CNc1cc(F)cc2c1[nH]c1nc(CNC(=O)c3ocnc3C)nc(N3CCC(CN)C3)c12 (centres undefined)
MIC [1]: 0.015 µg/mL (≈ 0.0331 µM)
MIC [2]: 0.03 µg/mL (≈ 0.0663 µM)
MIC (Enterococcus faecalis [3]): 0.5 µg/mL (≈ 1.1 µM)
MIC (Staphylococcus aureus): 8 µg/mL (≈ 17.7 µM)
MIC (Escherichia coli): 8 µg/mL (≈ 17.7 µM)

CNc1cc(F)cc2c1[nH]c1nc(CNC(=O)c3ccco3)nc(N3CCC(N(C)C)C3)c12 (centres undefined)
MIC [1]: 0.03 µg/mL (≈ 0.0664 µM)
MIC [2]: 0.06 µg/mL (≈ 0.133 µM)
MIC (Enterococcus faecalis [3]): 0.12 µg/mL (≈ 0.266 µM)
MIC (Staphylococcus aureus): 0.25 µg/mL (≈ 0.554 µM)
MIC (Escherichia coli): 0.5 µg/mL (≈ 1.11 µM)

CNc1cc(F)cc2c1[nH]c1nc(CNC(=O)c3cccc(C(=O)OC)n3)nc(N3CCC(CN)C3)c12 (centres undefined)
MIC [2]: 0.06 µg/mL (≈ 0.118 µM)
MIC (Enterococcus faecalis [3]): 1 µg/mL (≈ 1.97 µM)
MIC (Staphylococcus aureus): 8 µg/mL (≈ 15.8 µM)
MIC (Escherichia coli): 32 µg/mL (≈ 63.2 µM)

CNc1cc(F)cc2c1[nH]c1nc(CNC(=O)c3cccnc3)nc(N3CCC(N)C3)c12 (centres undefined)
MIC (Enterococcus faecalis [3]): 0.25 µg/mL (≈ 0.575 µM)
MIC (Staphylococcus aureus): 32 µg/mL (≈ 73.7 µM)
MIC (Escherichia coli): 8 µg/mL (≈ 18.4 µM)

NNC(=O)c1ccncc1 [ISONIAZID]
MIC [2]: 4 µg/mL (≈ 29.2 µM)

CNc1cc(F)cc2c1[nH]c1nc(CNC(=O)c3cnco3)nc(N3CCC(N)C3)c12 (centres undefined)
MIC [4]: 1 µg/mL (≈ 2.36 µM)
IC50 [5]: 10 nM
MIC (Haemophilus influenzae [6]): 1 µg/mL (≈ 2.36 µM)
MIC (Acinetobacter baumannii): 8 µg/mL (≈ 18.8 µM)
IC50 [7]: 59 nM
MIC [1]: 0.25 µg/mL (≈ 0.589 µM)
MIC (Streptococcus pneumoniae [8]): 1 µg/mL (≈ 2.36 µM)
MIC [2]: 0.25 µg/mL (≈ 0.589 µM)
IC50 (HepG2): > 16 µg/mL
MIC (Enterococcus faecalis [3]): 1 µg/mL (≈ 2.36 µM)
MIC (Staphylococcus aureus): 8 µg/mL (≈ 18.8 µM)
MIC (Escherichia coli): 4 µg/mL (≈ 9.42 µM)
MIC (Pseudomonas aeruginosa [9]): 32 µg/mL (≈ 75.4 µM)
inhibition (Homo sapiens): 21.2%

CNc1cc(F)cc2c1[nH]c1nc(CN)nc(N3CCC(N)C3)c12 (centres undefined)
MIC (Enterococcus faecalis [3]): 8 µg/mL (≈ 24.3 µM)
MIC (Staphylococcus aureus): 8 µg/mL (≈ 24.3 µM)
MIC (Escherichia coli): 8 µg/mL (≈ 24.3 µM)
